Source: patent EP4671246A1, “6-ALKOXYPYRAZOLOPYRIMIDINE COMPOUND AND PHARMACEUTICAL USE THEREOF” (Japan Tobacco Inc., priority 2023, dated 2024)

Target: T1, NLRP3 inflammasome (Homo sapiens, UniProt Q96P20)
T1 construct: host or cells: THP1-Null cells (PMA-differentiated, LPS-primed, nigericin-stimulated)
Experiment: Evaluation of NLRP3 inflammasome inhibitory activity (inhibition of IL-1β production in THP1-Null cells)
Format: cell-based
Conditions: 0.5 µmol/L PMA overnight, 1 µg/mL Lipopolysaccharides 3 hours, Nigericin 7.5 µmol/L 1.5 hours, AlphaLISA Human IL-1β
Protocol: The NLRP3 inflammasome inhibitory activity of test compounds were evaluated on the basis of the inhibitory activity of the IL-1β production in THP1-Null cells (Product Number: thp-null, InvivoGen). Cells were maintained for culture in RPMI-1640 media containing 10% (v/v) fetal bovine serum, 25 mmol/L HEPES, 100 U/mL penicillin, 100 µg/mL streptomycin, 100 µg/mL normocin, and 200 µg/mL hygromycin B (set at 37°C, 5% CO2/95% air) .
Cells were suspended with media for assay containing 0.5 µmol/L PMA (RPMI-1640 media containing 10% (v/v) fetal bovine serum, 100 U/mL penicillin, and 100 µg/mL streptomycin), and the suspended cells were seeded on Corning (registered trademark) 384-well Flat Clear Bottom Black Polystyrene TC-treated Microplates (25,000 cells/25 µL/well), followed by incubation (set at 37°C, 5% CO2/95% air) overnight. The supernatant of the culture was removed, and thereto was added media for assay (25 µL/well) containing 1 µg/mL Lipopolysaccharides (Product Number: L2654, Sigma-Aldrich (registered trademark)). Then, the culture was further incubated for 3 hours (set at 37°C, 5% CO2/95% air) . The supernatant of the culture was removed. Then, a vehicle solution prepared from Opti-MEM (trademark) medium (Product Number: 31985-070, Invitrogen) was added to blank-setting wells and control-setting wells (20 µL/well), followed by incubation for 15 minutes (set at 37°C, 5% CO2/95% air). A solution containing a test compound (20 µL/well) was added to test compound-setting wells. Further, Opti-MEM (trademark) medium containing Nigericin (Product Number: N7143, Sigma-Aldrich (registered trademark)) was added to the control-setting wells and test compound-setting wells (5 µL/well), followed by incubation for 1.5 hours (set at 37°C, 5% CO2/95% air). The final concentration of Nigericin was adjusted to be 7.5 µmol/L. 5 µL/well of Opti-MEM (trademark) medium was added to the blank-setting wells. The supernatant of the culture was cryonically stored (set at -20°C) until measurement of IL-1β.
The amount of IL-1β in the culture supernatant was quantitated with AlphaLISA (registered trademark) Human IL-1β Detection Kit (Product Number: AL220C, Perkin Elmer). Fluorescence intensity was measured with a microplate reader EnSpier (Model number: 2300-00J, Perkin Elmer) or EnSight (Model number: HH34000000, Perkin Elmer) according to procedure manuals attached thereto. Inhibition rates of the test compound-setting wells were calculated on the basis of 100% for the blank-setting wells and 0% for the control-setting wells. IC50 values (i.e., 50% inhibitory concentrations) of the test compounds were calculated by logistic regression analysis.

T1 sequence (Q96P20 whole entry): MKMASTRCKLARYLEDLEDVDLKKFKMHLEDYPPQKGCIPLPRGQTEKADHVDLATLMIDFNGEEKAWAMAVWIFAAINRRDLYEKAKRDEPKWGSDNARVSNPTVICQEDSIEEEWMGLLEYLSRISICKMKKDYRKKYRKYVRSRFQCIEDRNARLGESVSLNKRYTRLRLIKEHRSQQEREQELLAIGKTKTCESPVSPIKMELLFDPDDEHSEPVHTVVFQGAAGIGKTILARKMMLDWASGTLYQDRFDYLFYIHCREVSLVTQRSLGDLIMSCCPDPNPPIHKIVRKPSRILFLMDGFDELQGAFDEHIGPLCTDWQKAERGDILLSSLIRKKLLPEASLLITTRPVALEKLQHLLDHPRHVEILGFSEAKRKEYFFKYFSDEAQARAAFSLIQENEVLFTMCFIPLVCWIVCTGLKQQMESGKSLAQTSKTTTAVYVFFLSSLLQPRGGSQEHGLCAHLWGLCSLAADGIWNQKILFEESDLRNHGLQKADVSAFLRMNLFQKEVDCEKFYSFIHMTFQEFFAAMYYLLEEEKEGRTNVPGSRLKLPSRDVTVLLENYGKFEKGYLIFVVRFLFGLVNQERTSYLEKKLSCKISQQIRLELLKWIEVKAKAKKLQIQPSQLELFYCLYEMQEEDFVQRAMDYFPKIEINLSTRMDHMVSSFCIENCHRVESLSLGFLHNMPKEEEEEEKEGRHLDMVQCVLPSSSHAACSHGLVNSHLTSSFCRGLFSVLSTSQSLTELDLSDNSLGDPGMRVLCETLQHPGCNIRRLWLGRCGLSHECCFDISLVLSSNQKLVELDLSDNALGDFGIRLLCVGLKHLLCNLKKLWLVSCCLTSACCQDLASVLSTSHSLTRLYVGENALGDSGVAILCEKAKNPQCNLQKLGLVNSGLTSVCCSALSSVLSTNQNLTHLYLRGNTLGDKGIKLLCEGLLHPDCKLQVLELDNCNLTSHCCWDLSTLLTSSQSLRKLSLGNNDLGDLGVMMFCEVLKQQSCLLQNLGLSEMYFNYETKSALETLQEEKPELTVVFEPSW

COc1nc2nn(-c3ccc(C4CC4)cc3C3CC3)cc2c(=O)[nH]1 [Example 56]
IC50: 18 nM

COc1nc2nn(-c3ccc(C)cc3C)cc2c(=O)[nH]1 [Example 2]
IC50: 79 nM

COc1nc2nn(-c3c(C)cc(OC(F)(F)F)cc3C)cc2c(=O)[nH]1 [Example 61]
IC50: 69 nM

[2H]C([2H])([2H])Oc1nc2nn(-c3ccc(C(F)(F)F)cc3OC([2H])([2H])[2H])cc2c(=O)[nH]1 [Example 10]
IC50: 61 nM

COc1nc2nn(-c3ccc(C4CC4)cc3C(F)F)cc2c(=O)[nH]1 [Example 60]
IC50: 16 nM

CCOc1nc2nn(-c3c(C)cc(Br)cc3C)cc2c(=O)[nH]1 [Example 34]
IC50: 12 nM

COc1nc2nn(-c3ccc(C4CC4)cc3OC)cc2c(=O)[nH]1 [Example 40]
IC50: 49 nM

COc1nc2nn(-c3ccc(Br)cc3C(F)(F)F)cc2c(=O)[nH]1 [Example 43]
IC50: 38 nM

Cc1cc(Br)cc(C)c1-n1cc2c(=O)[nH]c(OC3CCC(S(C)(=O)=O)CC3)nc2n1 (centres unmarked) [Example 52]
IC50: 59 nM

COc1nc2nn(-c3c(F)cc(F)cc3Cl)cc2c(=O)[nH]1 [Example 75]
IC50: 1300 nM

Cc1cc(Br)cc(C)c1-n1cc2c(=O)[nH]c(OCCC(C)(C)O)nc2n1 [Example 20]
IC50: 22 nM

COc1nc2nn(-c3ccccc3C)cc2c(=O)[nH]1 [Example 1]
IC50: 4200 nM

COc1nc2nn(-c3ccc(Br)cc3C(F)F)cc2c(=O)[nH]1 [Example 59]
IC50: 55 nM

Cc1cc(Br)cc(C)c1-n1cc2c(=O)[nH]c(OC[C@H]3CCOC3)nc2n1 [Example 111]
IC50: 50 nM

COc1nc2nn(-c3c(C)cc(OC)c(Br)c3C)cc2c(=O)[nH]1 [Example 100]
IC50: 690 nM

CCOc1nc2nn(-c3c(C)cc(OC)cc3C)cc2c(=O)[nH]1 [Example 51]
IC50: 27 nM

Cc1cc(C)c(-n2cc3c(=O)[nH]c(OC(C)C)nc3n2)c(C)c1 [Example 5]
IC50: 34 nM

CCc1cc(C2CC2)ccc1-n1cc2c(=O)[nH]c(OC)nc2n1 [Example 80]
IC50: 17 nM

Cc1cc(Br)cc(C)c1-n1cc2c(=O)[nH]c(OC3CCS(=O)(=O)CC3)nc2n1 [Example 44]
IC50: 43 nM

COc1nc2nn(-c3c(C)cc(F)cc3C)cc2c(=O)[nH]1 [Example 90]
IC50: 740 nM

COc1nc2nn(-c3c(C)cc(Cl)cc3C)cc2c(=O)[nH]1 [Example 57]
IC50: 58 nM

COc1nc2nn(-c3c(Cl)cc(C(F)(F)F)cc3OC)cc2c(=O)[nH]1 [Example 15]
IC50: 1300 nM

Cc1cc(Br)cc(C)c1-n1cc2c(=O)[nH]c(OC3CCOCC3)nc2n1 [Example 16]
IC50: 25 nM

CCc1c2c(=O)[nH]c(OC)nc2nn1-c1c(C)cc(OC)cc1C [Example 91]
IC50: 140 nM

CCc1cc(Br)cc(C)c1-n1cc2c(=O)[nH]c(OC)nc2n1 [Example 85]
IC50: 12 nM

COc1cc(C)c(-n2nc3nc(OC)[nH]c(=O)c3c2C2CC2)c(C)c1 [Example 95]
IC50: 68 nM

COc1nc2nn(-c3c(C)cc(C4(O)CCC4)cc3C)cc2c(=O)[nH]1 [Example 27]
IC50: 990 nM

COc1nc2nn(-c3cc(C)c(Cl)cc3C)cc2c(=O)[nH]1 [Example 26]
IC50: 1200 nM

COCCOc1nc2nn(-c3c(C)cc(Br)cc3C)cc2c(=O)[nH]1 [Example 107]
IC50: 23 nM

Cc1cc(Br)cc(C)c1-n1cc2c(=O)[nH]c(OCC3(C#N)CC3)nc2n1 [Example 17]
IC50: 73 nM

CCc1cc(OC)cc(C)c1-n1cc2c(=O)[nH]c(OC)nc2n1 [Example 86]
IC50: 49 nM

Cc1cc(Br)cc(C)c1-n1cc2c(=O)[nH]c(OC[C@@H]3CCOC3)nc2n1 [Example 112]
IC50: 38 nM

COc1nc2nn(-c3c(C)cc(C4CC4)cc3OC(F)F)cc2c(=O)[nH]1 [Example 105]
IC50: 14 nM

Cc1cc(C2CC2)cc(C)c1-n1cc2c(=O)[nH]c(OC3CCS(=O)(=O)CC3)nc2n1 [Example 46]
IC50: 33 nM

COc1nc2nn(-c3c(C)cc(C(F)F)cc3C)cc2c(=O)[nH]1 [Example 65]
IC50: 140 nM

COCCOc1nc2nn(-c3c(C)cc(C)cc3C)cc2c(=O)[nH]1 [Example 4]
IC50: 74 nM

COc1nc2nn(-c3cc4c(cc3Cl)OCCC4)cc2c(=O)[nH]1 [Example 103]
IC50: 110 nM

COc1nc2nn(-c3c(C)cc(OC(F)F)cc3F)cc2c(=O)[nH]1 [Example 66]
IC50: 78 nM

COc1nc2nn(-c3c(C)cc(C(C)(F)F)cc3C)cc2c(=O)[nH]1 [Example 71]
IC50: 42 nM

Cc1cc(Br)cc(C)c1-n1cc2c(=O)[nH]c(OCC(C)(C)O)nc2n1 [Example 21]
IC50: 74 nM

Cc1cc(Br)cc(C)c1-n1cc2c(=O)[nH]c(OCCC(C)(C)C#N)nc2n1 [Example 109]
IC50: 67 nM

COc1nc2nn(-c3c(C)cc(C4CC4)cc3F)cc2c(=O)[nH]1 [Example 28]
IC50: 15 nM

Cc1cc(Br)cc(C)c1-n1cc2c(=O)[nH]c(OCCCS(=O)(=O)C(C)(C)C)nc2n1 [Example 64]
IC50: 7 nM

COc1cc(F)c(-n2cc3c(=O)[nH]c(OC)nc3n2)c(Cl)c1 [Example 76]
IC50: 74 nM

COCc1cc(C2CC2)cc(C)c1-n1cc2c(=O)[nH]c(OC)nc2n1 [Example 92]
IC50: 21 nM

COc1nc2nn(-c3c(C)cc(Br)cc3C)cc2c(=O)n1C [Example 23]
IC50: 680 nM

Cc1cc(C2CC2)cc(C)c1-n1cc2c(=O)[nH]c(OCCCS(=O)(=O)C(C)(C)C)nc2n1 [Example 74]
IC50: 3 nM

Cc1cc(Br)cc(C)c1-n1cc2c(=O)[nH]c(OCCC3COC3)nc2n1 [Example 30]
IC50: 51 nM

COc1nc2nn(-c3c(C)cc(C4CC4(F)F)cc3C)cc2c(=O)[nH]1 (racemic) [Example 120]
IC50: 88 nM

CCOc1nc2nn(-c3ccc(OC)cc3Br)cc2c(=O)[nH]1 [Example 49]
IC50: 73 nM
